The text below walks through data of US20130190314A1, “DERIVATIVES OF 6-CYCLOAMINO-2-THIENYL-3-(PYRIDIN-4-YL)IMIDAZO[1,2-b]-PYRIDAZINE AND 6-CYCLOAMINO-2-FURANYL-3-(PYRIDIN-4-YL)IMIDAZO[1,2-b]-PYRIDAZINE, PREPARATION AND THERAPEUTIC USE THEREOF” (priority 2008, published 2013).

pIC50: −log10 of the molar value.

The term pIC50 denotes −log10 of the IC50, conventionally taken in molar units. High values mean a low IC50, low ones a high IC50.

Test [1] addresses T1, casein kinase 1 delta (human CK1 delta PV3665) (Homo sapiens, UniProt P48730).
T1 construct: purchased Invitrogen Corporation PV3665
Kind of test: FRET fluorescence test (Z'Lyte kinase assay kit), phosphorylation of peptide substrate SER/THR 11. The format is biochemical. As to conditions: peptide substrate 2 μM, ATP at 4 times the KM. An excerpt: The capacity of the compounds of the invention to inhibit the phosphorylation of casein by casein kinase 1 epsilon and casein kinase 1 delta can be evaluated using a FRET (Fluorescence Resonance Energy Transfer) fluorescence test by means of the “Z′Lyte™ kinase assay kit” (reference PV3670; Invitrogen Corporation™) according to the supplier's instructions.
The casein kinases 1 used are obtained from Invitrogen Corporation (human CK1 epsilon PV3500 and human CK1 delta PV3665).
A peptide substrate, labelled at both ends with a fluorophore donor group (coumarin) and a fluorophore acceptor group (fluorescein) constituting a FRET system is phosphorylated in the presence of ATP by casein kinase 1 epsilon or delta in the presence of increasing concentrations of compounds of the invention.
The mixture is treated with a site-specific protease that specifically cleaves the peptide substrate so as to form two fluorescent fragments having a large fluorescence emission ratio.
The fluorescence observed is thus related to the capacity of the products of the invention to inhibit the phosphorylation of the peptide substrate by casein kinase 1 epsilon or casein kinase 1 delta. […]
The emitted fluorescence is measured at wavelengths of 445 and 520 nm (excitation at 400 nm).

The target in test [2] is T2, casein kinase 1 epsilon (CK1 epsilon) (Homo sapiens, UniProt P49674).
T2 construct: Invitrogen Corporation (alternative)
T2 sequence (P49674 whole entry): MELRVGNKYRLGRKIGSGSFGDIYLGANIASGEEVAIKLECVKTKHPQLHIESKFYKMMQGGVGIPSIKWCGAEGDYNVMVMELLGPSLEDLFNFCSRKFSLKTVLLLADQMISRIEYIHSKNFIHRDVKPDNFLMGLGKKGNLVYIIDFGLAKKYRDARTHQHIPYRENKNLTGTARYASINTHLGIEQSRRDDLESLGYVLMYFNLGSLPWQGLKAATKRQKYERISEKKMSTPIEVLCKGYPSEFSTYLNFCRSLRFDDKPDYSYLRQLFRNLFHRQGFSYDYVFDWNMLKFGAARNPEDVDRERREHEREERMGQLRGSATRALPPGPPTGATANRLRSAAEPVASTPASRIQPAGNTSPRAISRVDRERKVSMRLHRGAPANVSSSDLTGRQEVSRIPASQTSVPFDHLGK
Kind of test: Filter-plate assay of ATP-33P: inhibition of phosphorylation of casein by CK1 epsilon. The format is biochemical. As to conditions: casein substrate, 10 μM ATP, 2 hours at ambient temperature. Here is the method: The capacity of the compounds of the invention to inhibit the phosphorylation of casein by casein kinase 1 epsilon and delta can be evaluated according to the procedure described in document US 2005/0131012.
Filter-Plate Assay of ATP-^33P for the Screening of CK1 Epsilon Inhibitors:
The effect of the compounds on inhibition of the phosphorylation of casein by the enzyme casein kinase 1 epsilon (CK1 epsilon) is measured using a casein assay with filtration of ATP-^33P in vitro.
Casein kinase 1 epsilon (0.58 mg/ml) is obtained via fermentation and purification processes carried out according to methods well known to those skilled in the art, or may also be obtained from Invitrogen Corporation™ (human CK1 epsilon).
The compounds are tested at five different concentrations so as to generate IC50 values, i.e. the concentration at which a compound is capable of inhibiting the enzymatic activity by 50%, or alternatively the % inhibition at a concentration of 10 micromolar.
“U”-bottomed Falcon plates are prepared by placing 5 μl of solutions of the compounds according to the invention at concentrations of 10, 1, 0.1, 0.01 or 0.001 μM in various wells. The solutions of the compounds according to the invention at these various concentrations are prepared by diluting in a test buffer (50 mM Tris, pH 7.5, […], 2 mM DTT and 1 mM EGTA) a stock solution in DMSO at a concentration of 10 mM. Next, 5 μl of dephosphorylated casein are added to a final concentration of 0.2 μg/μl, 20 μl of CK1 epsilon are added to a final concentration of 3 ng/μl, and 20 μl of ATP-^33P are added to a final concentration of 0.02 μCi/μl mixed with cold ATP (10 μM final—approximately 2×10^6 CPM per well). The final total test volume per well is equal to 50 μl.
The “U”-bottomed Falcon® test plate mentioned above is vortexed, and then incubated at ambient temperature for 2 hours. After 2 hours, the reaction is stopped by adding an ice-cold solution of 65 μl of cold ATP (2 mM) prepared in test buffer. 100 μl of the reaction mixture are then transferred from the “U”-bottomed Falcon®plate into Millipore MAPH filter plates, preimpregnated with 25 μl of ice-cold 100% TCA. […]
The plates are left to dry overnight at ambient temperature. […] The radiation emitted by each well is then measured for 2 minutes in a Packard® Topcount NXT scintillation counter, in which the values of CPM/well are measured.
The % inhibition of the capacity of the enzyme to phosphorylate the substrate (casein) is determined for each concentration of compound tested. These inhibition data expressed as percentages are used to calculate the IC50 value for each compound compared with the controls.
The kinetic studies determined the KM value for ATP as being 21 μM in this test system.

T1 sequence (P48730 whole entry): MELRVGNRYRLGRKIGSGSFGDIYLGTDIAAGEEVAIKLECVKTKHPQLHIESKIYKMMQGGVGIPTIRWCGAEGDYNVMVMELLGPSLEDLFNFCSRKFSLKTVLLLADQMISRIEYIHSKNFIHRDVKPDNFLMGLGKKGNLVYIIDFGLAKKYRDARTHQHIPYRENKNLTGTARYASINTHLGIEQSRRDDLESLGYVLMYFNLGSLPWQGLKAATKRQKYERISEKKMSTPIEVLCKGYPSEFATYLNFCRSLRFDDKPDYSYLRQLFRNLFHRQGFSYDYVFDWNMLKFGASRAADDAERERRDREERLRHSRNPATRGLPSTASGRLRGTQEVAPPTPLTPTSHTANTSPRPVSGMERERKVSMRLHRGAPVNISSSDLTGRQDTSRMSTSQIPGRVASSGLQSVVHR

Take `OCCN1CCN(c2ccc3nc(-c4ccc(Cl)s4)c(-c4ccncc4)n3n2)CC1` [Compound 14, 2-{4-[2-(5-chlorothien-2-yl)-3-(pyridin-4-yl)imidazo[1,2-b]pyridazin-6-yl](piperazin-1-yl)}ethanol]: the pIC50 in test [1] was 6.79 to 7.03; in test [2] it was 7.72.

As for `Cc1ccc(-c2nc3ccc(N4CCNCC4)nn3c2-c2ccncc2)s1` [Compound 10, 2-(5-methylthien-2-yl)-6-(piperazin-1-yl)-3-(pyridin-4-yl)imidazo[1,2-b]pyridazine], the pIC50 is 7.12 to 7.20 in test [1] and 7.06 in test [2].
